Assay results from patent publication US9162992B2, “Compounds and compositions for treatment of breathing control disorders or diseases” (GALLEON PHARMACEUTICALS, INC., priority 2010, dated 2015).

Experiments:
[1] = molecular target: T1, BK potassium channel expressed in GH3 cells (Rattus norvegicus, UniProt Q62976); experiment: BK potassium channel current in GH3 cells, inside-out patches; format: cell-based
T1 construct: endogenous in cells; host or cells: GH3 cells
Protocol: Stock solutions of the test article were prepared in dimethylsulfoxide (DMSO) and stored frozen. Test article concentrations were prepared fresh daily by diluting stock solutions into a physiological saline solution (composition in mM): KCl, 125; CaCl2, 8.5; HEPES, 10; EGTA, 11.25; pH adjusted to 7.2 with KOH (prepared weekly and refrigerated until used). All test solutions contained 0.1% DMSO.
GH3 cells were grown in culture using standard procedures. Ionic currents were measured from inside-out patches of GH3 cells. Channel activity was monitored in symmetrical K^+ conditions with a holding potential of −60 mV. Activities before and in the presence of each concentration of test articles were recorded for ≧3 minutes, respectively.
Data acquisition and analyses were performed using the suite of pCLAMP (Ver. 8.2) programs (MDS-AT, Sunnyvale, Calif. Percent inhibition by test article was calculated using the following equation: 100*(NPocontrol−NPotest)/NPocontrol Results

[2] = molecular target: T2, human KCNK9/TASK-3 (Homo sapiens, UniProt Q9NPC2); experiment: Thallium flux through human TASK-3 (KCNK9-HEK cells); format: cell-based; details: Tl+ flux; 3 nM to 30 μM; read-out: hTASK-3 IC50
T2 construct: expressed in transfected cells; host or cells: HEK cells (tetracycline-inducible)
Protocol: CHO cells expressing recombinant tetracycline-inducible rat KCNK3/TASK-1 (KCNK3-CHO cells) were plated in poly-D-lysine coated 384-well plates at a density of 6,000 cells/well (50 μl/well of 120,000 cells/mL) and allowed to incubate for 72 hrs in the presence of 5% CO2 and 1 μg/mL tetracycline at 30° C. HEK cells expressing recombinant tetracycline-inducible human KCNK9/TASK-3 (KCNK9-HEK cells) were plated at a density of 15,000 cells per well (50 μl/well, 300,000 cells/mL) and incubated overnight at 37° C. and 5% CO2 in the presence of 1 μg/mL tetracycline.
Drug plates were generated from 10 mM 100% DMSO mother plates. Compounds were transferred to 384-well drug plates and titrated with sequential 1:3 dilutions in 100% DMSO for a total of 9 dilutions. A dilution plate is made by taking 2.4 μl from the mother plate and adding to […] of assay buffer for a 12% DMSO dilution plate. From this dilution plate, a final daughter plate is generated by taking 1 μA of the dilution plate and adding to 40 μA of assay buffer for a final DMSO concentration of 0.3%. Each compound was evaluated in duplicate and the concentration range evaluated was 3 nM to 30 μM.
When thallium was added to extracellular solution with a stimulus to open channels, Tl^+ flowed down its concentration gradient into the cells and channel activity was detected with an indicator dye, FluxOR™, that increased in cytosolic fluorescence. The FluxOR™ indicator dye was loaded into cells as a membrane permeable acetoxymethyl ester. On the day of each assay, FluxOR™ assay buffer was made fresh from Hank's Balanced Saline Solution (HBSS) buffered with 20 mM HEPES and pH adjusted to 7.4 with NaOH. Dye loading solution was prepared per manufacturer's instructions, and 25 μl of dye solution applied to each well with a multidropper after plating medium was removed manually from cells. Dye was allowed to load for 90 minutes at room temperature in the dark.
After the 90 min dye loading incubation and subsequent manual dye removal, 24 μl of the drug daughter plate was transfer to cell plates by a cybi-well system and then incubated at room temperature for 20 minutes to allow for equilibration within wells. Stimulation buffer was prepared from 5× chloride-free buffer, thallium, and potassium sulfate containing 5 times the desired final assay concentration of 10 mM K^+ 2.8 mM Tl^+. Cell plates were then transferred to an FDSS 6000 kinetic imaging plate reader (Hamamatsu). Fluorescence at 525 nm (excitation 488 nm) was measured for 10 seconds at 1 Hz to establish baseline for the entire plate. After baseline was established, 6 μl/well of stimulation buffer was added and fluorescence signal recorded for another 140 seconds.
From the fluorescence signals in the absence and presence of Galleon compounds, Inhibitory concentration curves were plotted and IC50 values were estimated using a curve fitting algorithm.

T1 sequence (Q62976 whole entry): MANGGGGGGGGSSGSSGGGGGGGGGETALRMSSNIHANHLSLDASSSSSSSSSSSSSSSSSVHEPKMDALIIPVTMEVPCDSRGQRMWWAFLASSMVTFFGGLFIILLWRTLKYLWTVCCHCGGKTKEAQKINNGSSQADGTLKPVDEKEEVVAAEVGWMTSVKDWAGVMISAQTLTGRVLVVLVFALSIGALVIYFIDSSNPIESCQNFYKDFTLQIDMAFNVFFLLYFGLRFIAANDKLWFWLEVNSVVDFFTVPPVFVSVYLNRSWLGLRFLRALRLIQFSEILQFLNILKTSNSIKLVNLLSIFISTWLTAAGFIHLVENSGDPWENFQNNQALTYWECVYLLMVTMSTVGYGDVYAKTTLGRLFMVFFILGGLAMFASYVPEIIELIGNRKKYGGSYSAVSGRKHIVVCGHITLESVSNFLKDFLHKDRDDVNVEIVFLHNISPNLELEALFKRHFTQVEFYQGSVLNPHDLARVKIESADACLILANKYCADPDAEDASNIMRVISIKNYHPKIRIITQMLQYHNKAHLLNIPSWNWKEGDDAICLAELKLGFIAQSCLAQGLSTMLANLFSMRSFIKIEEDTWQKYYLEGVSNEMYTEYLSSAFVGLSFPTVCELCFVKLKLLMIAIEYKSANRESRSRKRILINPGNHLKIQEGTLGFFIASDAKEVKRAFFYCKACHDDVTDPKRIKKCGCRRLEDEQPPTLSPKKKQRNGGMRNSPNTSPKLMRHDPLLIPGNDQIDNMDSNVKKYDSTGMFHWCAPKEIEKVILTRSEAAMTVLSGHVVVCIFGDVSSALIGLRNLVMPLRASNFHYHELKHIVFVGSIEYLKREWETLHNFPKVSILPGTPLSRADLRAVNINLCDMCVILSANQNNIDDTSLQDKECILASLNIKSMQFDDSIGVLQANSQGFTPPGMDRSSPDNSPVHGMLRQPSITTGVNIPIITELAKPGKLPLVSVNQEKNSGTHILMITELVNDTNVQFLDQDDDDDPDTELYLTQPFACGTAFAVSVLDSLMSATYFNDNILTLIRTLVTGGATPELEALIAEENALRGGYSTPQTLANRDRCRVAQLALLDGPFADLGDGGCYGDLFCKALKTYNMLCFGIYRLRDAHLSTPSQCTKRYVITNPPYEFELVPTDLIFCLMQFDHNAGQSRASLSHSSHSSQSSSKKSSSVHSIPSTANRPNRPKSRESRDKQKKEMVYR
T2 sequence (Q9NPC2 whole entry): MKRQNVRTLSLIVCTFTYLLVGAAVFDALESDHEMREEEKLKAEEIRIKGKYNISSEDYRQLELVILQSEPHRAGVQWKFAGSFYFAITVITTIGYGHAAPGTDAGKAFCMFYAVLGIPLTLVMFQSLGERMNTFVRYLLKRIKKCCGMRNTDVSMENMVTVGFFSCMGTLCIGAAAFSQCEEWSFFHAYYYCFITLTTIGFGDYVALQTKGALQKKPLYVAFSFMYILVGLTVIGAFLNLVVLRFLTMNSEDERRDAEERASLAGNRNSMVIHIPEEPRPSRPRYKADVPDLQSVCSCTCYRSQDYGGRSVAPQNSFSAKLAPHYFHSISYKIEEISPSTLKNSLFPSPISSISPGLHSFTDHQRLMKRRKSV

| Compound | reduction of total channel open probability ([1]; 10 μM) [%] | inhibition of the native BK channel ([1]; 1 and 10 μM) | Inhibition (%), Average ([1]; (XXXV) 1 (mM as printed)) [%] | NPo, Average ([1]; (XXXV) 1 (mM as printed)) | Inhibition (%), Average ([1]; (XXXV) 10 (mM as printed)) [%] | NPo, Average ([1]; (XXXV) 10 (mM as printed)) | IC50 [2] [µM] |
| --- | --- | --- | --- | --- | --- | --- | --- |
| CCCNc1nc(NCCC)nc(N(C)OC)n1 [XXXV, N-(4,6-Bis-n-propylamino-[1,3,5]triazin-2-yl)-N,O-dimethyl-hydroxylamine] | 42 | concentration—dependent inhibition | 22.3 | 0.014 | 41.4 | 0.020 | – |
| CCCNc1nc(NCCC)nc(N(C)OC)n1.O=S(=O)(O)O [XXXVI, N-(4,6-Bis-n-propylamino-[1,3,5]triazin-2-yl)-N,O-dimethyl-hydroxylamine hydrogen sulfate] | – | – | – | – | – | – | > 30 |
